From patent US20180111913A1, “SUBSTITUTED BENZOFURAN DERIVATIVES AS NOVEL ANTIMYCOBACTERIAL AGENTS” (priority 2015, published 2018)
≈ marks a conversion by molar mass, not a printed value. Read-outs that look alike come from different tables or passages of the source.

Tests used:
[1] = target: Mtb Pks13-TE domain (wild-type) (Mycobacterium tuberculosis, UniProt I6X8D2); assay: biochemical; assay type: biochemical
Mtb strain mc^27000 = assay: microbe, parasite or virus in culture; assay type: cell-based, Mycobacterium tuberculosis; details: for MIC: read-out: MIC; for inhibition at 20 µM: read-out: percentage inhibition observed (incomplete inhibition)
[2] = Pks13-TE, 20 μM 4-MUH, read-out: IC50
[3] = Mycobacterium tuberculosis, Mtb mc^27000, liquid medium, 96-well plates
[4] = Mtb mc^27000, liquid medium, 96-well plates
[5] = Mtb Pks13-TE domain, mean ± s.d. of triplicates, read-out: IC50

Mtb Pks13-TE domain (wild-type), sequence (I6X8D2 1451-1733): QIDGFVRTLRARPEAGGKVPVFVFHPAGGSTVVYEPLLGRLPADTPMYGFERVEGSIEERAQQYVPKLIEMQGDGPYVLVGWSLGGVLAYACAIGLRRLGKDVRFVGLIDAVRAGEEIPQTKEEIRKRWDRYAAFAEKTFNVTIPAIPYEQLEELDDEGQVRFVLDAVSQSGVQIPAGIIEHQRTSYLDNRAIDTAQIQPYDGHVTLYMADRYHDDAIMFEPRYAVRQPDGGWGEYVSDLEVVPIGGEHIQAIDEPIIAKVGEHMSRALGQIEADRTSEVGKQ

CCOC(=O)c1c(-c2ccccc2)oc2ccc(O)c(CCN3CCOCC3)c12 [compound 229]
IC50 [1, 2]: 5.8 µM
MIC (Mtb strain mc^27000; [3]): 3.2 µM (≈ 1.27 µg/mL)

CCOC(=O)c1c(-c2ccccc2)oc2cc(O)cc(CCN)c12 [compound 136]
IC50 [1, 2]: > 20 µM
MIC (Mtb strain mc^27000; [4]): 4 µM (≈ 1.3 µg/mL)

CCOC(=O)c1c(-c2ccccc2)oc2ccc(O)c(CCCN3CC[C@H](O)C3)c12 [compound 186]
IC50 [1, 2]: 0.62 µM
MIC (Mtb strain mc^27000; [3]): 10 µM (≈ 4.09 µg/mL)

CCOC(=O)CCCC1CCN(CCCc2c(O)ccc3oc(-c4ccccc4)c(C(=O)OCC)c23)C1 (centres unmarked) [compound 161]
IC50 [1, 2]: 0.8 µM
MIC (Mtb strain mc^27000; [4]): 1.0 µM (≈ 0.508 µg/mL)

CCOC(=O)c1c(-c2ccccc2)oc2ccc(O)c(CN3CCC(N4CCCCC4)CC3)c12 [compound 98]
IC50 [1, 2]: > 20 µM
inhibition at 20 µM (Mtb strain mc^27000; Mycobacterium tuberculosis): 40%

CCOC(=O)c1c(-c2ccccc2)oc2ccc(O)c(C)c12 [compound 12]
IC50 [1, 2]: > 20 µM
MIC (Mtb strain mc^27000; [3]): 20 µM (≈ 5.93 µg/mL)

CCOC(=O)c1c(-c2ccccc2)oc2ccc(O)c(CC3CCCCC3)c12 [compound 16]
IC50 [1, 5]: 19.6 ± 1.4 µM
IC50 [1, 2]: 19.6 µM
loss of inhibitory activity / higher IC50 against Pks13-TE compared to the test compound ([1]; relative to test compound): > 70 fold
MIC (Mtb strain mc^27000; [4]): 5.2 µM (≈ 1.97 µg/mL)
MIC (Mtb strain mc^27000; […], mean ± s.d. of triplicates, NI: no inhibition): 5.2 µM (≈ 1.97 µg/mL)

CCOC(=O)c1c(-c2ccccc2)oc2ccc(O)c(CCN3CCC(C#N)CC3)c12 [compound 228]
IC50 [1, 2]: 3.6 µM
MIC (Mtb strain mc^27000; [3]): 5 µM (≈ 2.09 µg/mL)

O=S(=O)(Nc1ccc2oc(-c3ccccc3)cc2c1CN1CCC(N2CCCCC2)CC1)C(F)(F)F [compound 100]
IC50 [1, 2]: > 40 µM
inhibition at 20 µM (Mtb strain mc^27000; Mycobacterium tuberculosis): 6%

CCOC(=O)c1c(-c2ccc(F)cc2)oc2cc(O)cc(CN3CCCCC3)c12 [compound 51]
IC50 [1, 2]: 0.8 µM
MIC (Mtb strain mc^27000; [4]): >30 µM

CC(C)(C)OC(=O)NC1CCN(C(=O)c2c(-c3ccccc3)oc3ccc(O)c(CN4CCCCC4)c23)CC1 [compound 53]
IC50 [1, 2]: 0.63 µM
MIC (Mtb strain mc^27000; [4]): 6.6 µM (≈ 3.52 µg/mL)

CCOC(=O)CCCC1CCN(CCCc2c(O)ccc3oc(-c4ccccc4)c(C(=O)OCC)c23)C1 (centres unmarked) [compound 172]
IC50 [1, 2]: 0.7 µM
MIC (Mtb strain mc^27000; [3]): 2.9 µM (≈ 1.47 µg/mL)

CCOC(=O)c1c(-c2ccccc2)oc2ccc(O)c(CCCN3CC[C@@H]3CO)c12 [compound 212]
IC50 [1, 2]: 1.94 µM
MIC (Mtb strain mc^27000; [3]): 1.1 µM (≈ 0.45 µg/mL)

CNC(=O)c1c(-c2ccc(F)cc2)oc2cc(O)cc(CCN[C@H](CO)Cc3cnc[nH]3)c12 [compound 261]
IC50 [1, 2]: 5 µM
MIC (Mtb strain mc^27000; [3]): 5 µM (≈ 2.26 µg/mL)

CNC(=O)c1c(-c2ccc(O)cc2)oc2ccc(O)c(CCCN3CCC3)c12 [compound 202]
IC50 [1, 2]: 1.6 µM
MIC (Mtb strain mc^27000; [3]): 15 µM (≈ 5.71 µg/mL)

CNC(=O)c1c(-c2ccc(O)cc2)oc2ccc(O)c(CN3CCCC(CO)C3)c12 (centres unmarked) [compound 127]
IC50 [1, 2]: 1.1 µM
MIC (Mtb strain mc^27000; [3]): 5 µM (≈ 2.05 µg/mL)

CCOC(=O)c1c(-c2ccc(C(N)=O)cc2)oc2ccc(O)c(CN3CCCCC3)c12 [compound 60]
IC50 [1, 2]: 0.3 µM
MIC (Mtb strain mc^27000; [3]): 3.5 µM (≈ 1.48 µg/mL)

CCOC(=O)c1c(-c2ccc(O)cc2)oc2ccc(O)c(CN3CCCC(CO)C3)c12 (centres unmarked) [compound 134]
IC50 [1, 2]: 0.4 µM
MIC (Mtb strain mc^27000; [3]): 2.5 µM (≈ 1.06 µg/mL)

CNC(=O)c1c(-c2ccc(O)cc2)oc2ccc(O)c(CN3CCC(CO)CC3)c12 [compound 121]
IC50 [1, 2]: 0.6 µM
MIC (Mtb strain mc^27000; [3]): 40 µM (≈ 16.4 µg/mL)

CCOC(=O)c1c(-c2ccccc2)oc2ccc(O)c(CCCN3CC(F)C3)c12 [compound 199]
IC50 [1, 2]: 2.5 µM
MIC (Mtb strain mc^27000; [3]): 1.2 µM (≈ 0.477 µg/mL)

CCOC(=O)c1c(-c2ccc(O)cc2)oc2ccc(O)c(CCCN3CCC3)c12 [compound 201]
IC50 [1, 2]: 2.1 µM
MIC (Mtb strain mc^27000; [3]): < 0.08 µM

CNC(=O)c1c(-c2ccc(O)cc2)oc2ccc(O)c(CN3CCC(C#N)CC3)c12 [compound 124]
IC50 [1, 2]: 0.25 µM
MIC (Mtb strain mc^27000; [3]): 20 µM (≈ 8.11 µg/mL)

CCOC(=O)/C=C/CC1CCN(CCCc2c(O)ccc3oc(-c4ccccc4)c(C(=O)OCC)c23)C1 (centres unmarked) [compound 171]
IC50 [1, 2]: 0.5 µM
MIC (Mtb strain mc^27000; [3]): 2.7 µM (≈ 1.37 µg/mL)

CCOC(=O)c1c(-c2ccccc2)oc2ccc(O)c(CCCN3CCC(CCCO)C3)c12 (centres unmarked) [compound 162]
IC50 [1, 2]: 2.7 µM
MIC (Mtb strain mc^27000; [3]): 2.5 µM (≈ 1.13 µg/mL)

O=C(c1c(-c2ccccc2)oc2ccc(O)c(CN3CCCCC3)c12)N1CCCCC1 [compound 43]
IC50 [1, 2]: 0.32 µM
MIC (Mtb strain mc^27000; [4]): >10 µM

CCOC(=O)c1c(-c2ccc(F)cc2)oc2ccc(O)c(CN3CCCCC3)c12 [compound 25]
IC50 [1, 2]: 0.35 µM
MIC (Mtb strain mc^27000; [4]): 1.5 µM (≈ 0.596 µg/mL)

CCOC(=O)c1c(-c2ccccc2)oc2ccc(OC)c(CN3CCCCC3)c12 [compound 23]
IC50 [1, 5]: 35.8 ± 2.2 µM
IC50 ([1]; Pks13-TE, read-out: IC50 (unit inferred)): ~36 µM
loss / decrease in inhibitory activity compared to compound I ([1]; relative to compound I): > 100 fold
MIC (Mtb strain mc^27000; [3]): 35.8 µM (≈ 14.1 µg/mL)

CNC(=O)c1c(-c2ccc(O)cc2)oc2ccc(O)c(CNC3CCCC3)c12 [compound 128]
IC50 [1, 2]: 1 µM
MIC (Mtb strain mc^27000; [3]): 1 µM (≈ 0.38 µg/mL)

COC(=O)c1c(-c2ccccc2)oc2ccc(O)c(CCCN3CCCC3)c12 [compound 104]
IC50 [1, 2]: 2 µM
MIC (Mtb strain mc^27000; [3]): 1.8 µM (≈ 0.683 µg/mL)

CNC(=O)c1c(-c2ccc(O)cc2)oc2ccc(O)c(CN3CCC(O)CC3)c12 [compound 120]
IC50 [1, 2]: 0.5 µM
MIC (Mtb strain mc^27000; [3]): 4.2 µM (≈ 1.67 µg/mL)

CNC(=O)c1c(-c2cccc(O)c2)oc2ccc(O)c(CN3CCCCC3)c12 [compound 57]
IC50 [1, 2]: 0.27 µM
MIC (Mtb strain mc^27000; [3]): 0.44 µM (≈ 0.167 µg/mL)

OCc1c(-c2ccccc2)oc2ccc(O)c(CN3CCC(N4CCCCC4)CC3)c12 [compound 99]
IC50 ([1]; Pks13-TE, read-out: IC50 (μM), given as NB / NI): > 20 µM
inhibition at 20 µM (Mtb strain mc^27000; Mycobacterium tuberculosis): 28%

CCOC(=O)c1c(-c2ccccc2)oc2ccc(O)c(CN3CCC(C)CC3)c12 [compound 1]
MIC (Mtb strain mc^27000; [3]): 2.3 ± 0.2 µM (≈ 0.905 µg/mL)
MIC (Mtb strain mc^27000; Mycobacterium tuberculosis, […], mean ± s.d. of triplicates, NI: no inhibition): 2.3 ± 0.2 µM (≈ 0.905 µg/mL)
